Data on 14 compounds can be found in ChEMBL document CHEMBL3286248, “Easily accessible polycyclic amines that inhibit the wild-type and amantadine-resistant mutants of the M2 channel of influenza A virus” (J Med Chem, 2014).

One data set has as its system Influenza B virus. The experiment in a line: Antiviral activity against Influenza B virus (B/HK/5/72) infected in MDCK cells. Type of data set: functional, cell-based. The settings on record: B/Hong Kong/05/1972.
In data set [1] the target is Matrix protein 2 (Influenza A virus (A/Udorn/307/1972(H3N2)), UniProt P0DOF8). Type of data set: cell membranes, Influenza A virus (A/udorn/1972(H3N2)).
Sequence of Matrix protein 2 (Influenza A virus (A/Udorn/307/1972(H3N2)), UniProt P0DOF8) (P0DOF8 whole entry): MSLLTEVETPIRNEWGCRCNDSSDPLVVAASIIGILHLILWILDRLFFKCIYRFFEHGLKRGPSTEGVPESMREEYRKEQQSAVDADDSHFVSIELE
Data set [2] in a line: Cytotoxicity against MDCK cells assessed as alteration in cell morphology after 72 hrs. In kind it is cell-based, Canis lupus familiaris. The settings on record: dog.
The subject of another data set is MDCK. In kind it is cell-based, Canis lupus familiaris. The settings on record: dog, 72 h.
Data set [3] has as its target Matrix protein 2 (Influenza A virus (A/Udorn/307/1972(H3N2))) (UniProt P0DOF8). Type of data set: cell membranes. The conditions noted are these: Influenza A virus (A/udorn/1972(H3N2)).

Where a name gives a salt, the structure may show the parent alone. Active and inactive are the calls of the source. The rule behind the calls is not given here. A value given as a limit tells only on which side of the number the result lay.

Sequence of Matrix protein 2 (Influenza A virus (A/Udorn/307/1972(H3N2))) (P0DOF8 whole entry): as above

Consider `C1CC2C3CNCC3C1C1CC21` (stereo not given), for which, in the data set with Influenza B virus, the outcome was inactive. Also, the half-maximal inhibitory concentration (IC50) in data set [1] came to 3.38 µM. For the same compound, the MCC at 72 h in data set [2] amounted to 100 µM. The compound further displayed a CC50 in the data set on MDCK of 49 µM.
As to `N=C(N)N1CC2C3C=CC(C4C=CC43)C2C1` (stereo not given), the result in the data set on Influenza B virus was inactive. Moreover, in data set [1], the midpoint of inhibition, the IC50, lay at 4.93 µM. Besides, the MCC at 72 h in data set [2] stood at 20 µM. In addition, in the data set with MDCK, the CC50 was determined as 9.4 µM.
The matching figures for `C1=CC2C1C1C=CC2C2CNCC12` (stereo not given): “inactive”, 5.54 µM, 15 µM and 4.9 µM.
The matching figures for `N=C(N)N1CC2C3CCC(C4CC34)C2C1` (stereo not given): “inactive”, 1.64 µM, 100 µM and 41 µM.
Turning to `CC(N)C12CC3CC(CC(C3)C1)C2` (stereo not given) [RIMANTADINE HYDROCHLORIDE], in the data set with Influenza B virus, the result was inactive. This compound displayed a CC50 in the data set with MDCK of 230 µM.
Turning to `C1=CC2C3CC3C1C1CN(C3CCNCC3)CC21` (stereo not given), the outcome in the data set with Influenza B virus was inactive. Further, in data set [3], the inhibition entry is “inactive”. Further, the MCC at 72 h in data set [2] is 100 µM. The CC50 in the data set on MDCK is 46 µM.
Regarding `N=C(N)N1CC2C3C=CC(C4CC34)C2C1` (stereo not given), the result in the data set with Influenza B virus was inactive. Also, half-maximal inhibition in data set [1] (IC50) required 1.5 µM. The MCC at 72 h in data set [2] worked out at 100 µM. This compound returned a CC50 with MDCK of 39 µM.
In the same order, the values of `C1CC2C1C1CCC2C2CNCC12` (stereo not given) are “inactive”, 1.24 µM, 4 µM and 1.9 µM.
Consider `CC12CC34CN(C(=N)N)CC35CC1(C)C(C)(C5)C2(C)C4` (stereo not given), for which, in the data set with Influenza B virus, the outcome was inactive. In data set [2], the MCC at 72 h was at least 4 µM. The CC50 with MDCK is 15 µM.
Consider `C1=CC2C3CNCC3C1C1CC21` (stereo not given), for which the result in the data set with Influenza B virus was inactive. Besides, in data set [1], half-maximal inhibition (IC50) required 2.92 µM. Besides, the MCC at 72 h in data set [2] came out at 100 µM. Also, in the data set with MDCK, the midpoint of cytotoxicity, the CC50, lay at 54 µM.
As for `C1CC(N2CC3C4CCC(C5CC45)C3C2)CCN1` (stereo not given), the result in the data set on Influenza B virus was inactive. Besides, in data set [3], the inhibition result was “inactive”. For the same compound, the MCC at 72 h in data set [2] was determined as 20 µM. In the data set with MDCK, this compound showed a CC50 of 9 µM.
Regarding `CC12CC34CNCC35CC1(C)C(C)(C5)C2(C)C4` (stereo not given), in the data set on Influenza B virus, the result was inactive. The MCC at 72 h in data set [2] was 100 µM. This compound came in with a CC50 with MDCK of 49 µM.
For the compound `NC12CC3CC(CC(C3)C1)C2` [AMANTADINE], the outcome in the data set on Influenza B virus was inactive. For the same compound, in data set [2], the MCC at 72 h is at least 500 µM. The compound also displayed a half-maximal cytotoxic concentration (CC50) with MDCK of over 500 µM.
In the case of `N=C(N)N1CC2C3CCC(C4CCC43)C2C1` (stereo not given), the result in the data set with Influenza B virus was inactive. Besides, in data set [2], the MCC at 72 h amounted to 4 µM. This compound displayed a CC50 with MDCK of 1.9 µM.
